Data as given in patent publication EP4603105A1, “PHARMACEUTICAL COMPOSITION CONTAINING CYCLIC COMPOUND HAVING SELECTIVE KRAS INHIBITORY EFFECT AGAINST HRAS AND NRAS” (CHUGAI SEIYAKU KABUSHIKI KAISHA, priority 2022, dated 2024).

Legend:
[1] = target: GDP-bound KRAS wild-type protein (Homo sapiens, UniProt P01116); experiment: Binding to KRAS by surface plasmon resonance (SPR), dissociation constant KD
Procedure, shortened: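 Compound binding is evaluated by SPR single-cycle kinetics, with concentrations added intermittently from low to high for 75 s each. Target surfaces carry GDP-loaded biotinylated Avi-RAS at about 100–300 RU, regenerated after each cycle; temperature 30°C. A 1:1 binding model gives KD.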

[2] = test system: human lung cancer strain NCI-H441; assay type: cell-based
Procedure, shortened: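 Signal came from […] measured per well once the reagent was added. Beforehand, cells were cultured at 37°C and 5% carbon dioxide on a compound series serially diluted in dimethyl sulfoxide.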

HRAS wild-type protein = HRAS wild-type protein (Homo sapiens, UniProt P01112); experiment: Binding to HRAS by surface plasmon resonance (SPR), KD and KD ratio to KRAS
HRAS wild-type protein, sequence (P01112 whole entry): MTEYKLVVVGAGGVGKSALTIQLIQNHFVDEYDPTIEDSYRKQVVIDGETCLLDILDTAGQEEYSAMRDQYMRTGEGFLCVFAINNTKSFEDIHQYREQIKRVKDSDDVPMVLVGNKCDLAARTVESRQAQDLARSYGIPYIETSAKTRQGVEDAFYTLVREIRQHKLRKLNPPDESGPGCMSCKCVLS
Procedure, shortened: (§1)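 Each cycle, GDP-bound biotin-Avi RAS was captured (~100–300 RU), compound concentrations were injected low to high for 75 s each at 100 µL/min, then the chip was regenerated. Buffer: HBS pH 7.4, 10 mM MgCl2, 10 µM GDP, 1 mM DTT, 4% DMSO; 30°C. KD from a 1:1 binding model.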

[3] = target: GDP-bound NRAS wild-type protein (Homo sapiens, UniProt P01111); experiment: Binding to NRAS by surface plasmon resonance (SPR), KD and KD ratio to KRAS
GDP-bound NRAS wild-type protein, sequence (P01111 whole entry): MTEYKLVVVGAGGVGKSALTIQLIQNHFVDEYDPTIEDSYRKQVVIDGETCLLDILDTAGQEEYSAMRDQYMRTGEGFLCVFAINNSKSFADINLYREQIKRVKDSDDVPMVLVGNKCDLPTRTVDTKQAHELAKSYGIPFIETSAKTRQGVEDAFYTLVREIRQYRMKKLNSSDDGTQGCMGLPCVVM
Procedure, shortened: as §1

[4] = Single Cycle Kinetics, 1:1 binding model
[5] = ratio of KD value for HRAS wild-type protein to KD value for KRAS (SPR)
[6] = ratio of KD value for GDP-bound NRAS wild-type protein to KD value for KRAS (SPR)
[7] = ratio of the KD value with respect to HRAS wild-type protein to the KD value with respect to KRAS
[8] = ratio of the KD value with respect to GDP-bound NRAS wild-type protein to the KD value with respect to KRAS
[9] = ratio of KD for HRAS wild-type protein to KD for KRAS
[10] = ratio of KD for GDP-bound NRAS wild-type protein to KD for KRAS

GDP-bound KRAS wild-type protein, sequence (P01116 1-188 isoform P01116-2): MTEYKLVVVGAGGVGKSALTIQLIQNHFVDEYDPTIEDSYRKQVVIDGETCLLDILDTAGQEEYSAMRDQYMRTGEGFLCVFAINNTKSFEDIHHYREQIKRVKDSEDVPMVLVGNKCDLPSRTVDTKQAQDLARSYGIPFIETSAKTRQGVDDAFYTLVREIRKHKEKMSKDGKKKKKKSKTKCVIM

Q: What does the source list for `CC[C@H](C)[C@@H]1NC(=O)[C@H](CC)N(C)C(=O)C[C@@H](C(=O)N(C)C)N(C)C(=O)[C@H](C2CCCC2)N(C)C(=O)C2(CCC2)N(C)C(=O)[C@@H]2C[C@@H](C)CN2C(=O)[C@H](CCc2cc(F)c(C(F)(F)F)c(F)c2)NC(=O)CN(C)C(=O)[C@H](Cc2ccc(C)cc2)N2CC/C=C\C[C@@H](C2=O)N(C)C(=O)CN(C)C1=O` [PP1787]?
A: Kd [1, 4]: 0.071 nM; IC50 [2]: 9 nM; HRAS /KRAS (HRAS wild-type protein; [5]): B (a compound having 3 or more and less than 10 is denoted as B); NRAS /KRAS [3, 6]: A (a compound having 10 or more and less than 20 is denoted as A)

Q: Which Kd [1, 4] does the source give for `CCO[C@@H]1C[C@H]2C(=O)NC3(CC(C)(C)C3)C(=O)N(C)[C@@H](C(CC)CC)C(=O)N(C)[C@H](C(=O)N(C)C)CC(=O)N(C)[C@@H](C(C)C)C(=O)N[C@@H]([C@@H](C)CC)C(=O)N(C)CC(=O)N(C)[C@H]3C/C=C\CCN(C3=O)[C@@H](Cc3ccc(C)cc3)C(=O)N(C)CC(=O)N[C@@H](CCc3cc(F)c(C(F)(F)F)c(F)c3)C(=O)N2C1` [PP2153] here?
A: The Kd was 0.49 nM.

Q: What about the IC50 [2] of the same molecule?
A: The IC50 was 20 nM.

Q: And the “HRAS /KRAS” value (HRAS wild-type protein; [7])?
A: The value was “A (a compound having 10 or more and less than 20 is denoted as A)”.

Q: What about the “NRAS /KRAS” value [3, 8] of the same molecule?
A: The value was “A (a compound having 10 or more and less than 20 is denoted as A)”.

Q: How did the Kd [1, 4] turn out when `CCC[C@H]1C(=O)N[C@@H]([C@@H](C)CC)C(=O)N(C)CC(=O)N(C)[C@H]2C/C=C\CCN(C2=O)[C@@H](Cc2ccc(C)cc2)C(=O)N(C)CC(=O)N[C@@H](CCc2ccc(C(F)(F)F)c(OC)c2)C(=O)N2C[C@@H](C)C[C@H]2C(=O)NC2(CC(C)(C)C2)C(=O)N(C)[C@@H](C2CCCC2)C(=O)N(C)[C@H](C(=O)N(C)C)CC(=O)N1C` [PP1888] was run?
A: The Kd was 0.074 nM.

Q: What about the IC50 [2] of the same molecule?
A: The IC50 was 3.5 nM.

Q: What about the “HRAS /KRAS” value (HRAS wild-type protein; [5]) of the same molecule?
A: The value was “B (a compound having 3 or more and less than 10 is denoted as B)”.

Q: And the “NRAS /KRAS” value [3, 6]?
A: The value was “A (a compound having 10 or more and less than 20 is denoted as A)”.

Q: Which Kd ([1]; Single Cycle Kinetics) does the source give for `CC[C@H](C)[C@@H]1NC(=O)[C@H](CC(C)C)N(C)C(=O)C[C@@H](C)N(C)C(=O)[C@H](C2CCCC2)N(C)C(=O)C2(CCC2)NC(=O)[C@@H]2CCCN2C(=O)[C@H](CCc2cc(F)c(C(F)(F)F)c(F)c2)NC(=O)CN(C)C(=O)[C@H](Cc2ccc(C(F)(F)F)cc2)N2CC/C=C\C[C@@H](C2=O)N(C)C(=O)CN(C)C1=O` [PP1099] here?
A: Its Kd is 0.58 nM.

Q: What about the IC50 [2] of the same molecule?
A: Its IC50 is 68.1 nM.

Q: And the “HRAS /KRAS” value (HRAS wild-type protein; [9])?
A: The value was “A (a compound having 10 or more and less than 20 is denoted as A)”.

Q: What about the “NRAS /KRAS” value [3, 10] of the same molecule?
A: The value was “B (a compound having 3 or more and less than 10 is denoted as B)”.

Q: With `CC[C@H](C)[C@@H]1NC(=O)[C@H](CC2CC2)N(C)C(=O)C[C@@H](C(=O)N(C)CC)N(C)C(=O)[C@H](C2CCCC2)N(C)C(=O)C2(CC(C)(C)C2)NC(=O)[C@@H]2C[C@@H](F)CN2C(=O)[C@H](CCc2cc(F)c(C(F)(F)F)c(F)c2)NC(=O)CN(C)C(=O)[C@H](Cc2ccc(C)cc2)N2CC/C=C\C[C@@H](C2=O)N(C)C(=O)CN(C)C1=O` [PP2802] as the molecule, how does the Kd ([1]; 1:1 binding model) read?
A: Its Kd is 0.034 nM.

Q: What about the IC50 [2] of the same molecule?
A: The IC50 was 5.5 nM.

Q: What about the “HRAS /KRAS” value (HRAS wild-type protein; [9]) of the same molecule?
A: Its value is “A (a compound having 10 or more and less than 20 is denoted as A)”.

Q: And the “NRAS /KRAS” value [3, 10]?
A: Its value is “AA (a compound having 20 or more is denoted as AA)”.

Q: How did the Kd [1, 4] turn out when `CCCOC[C@H]1C(=O)N[C@@H]([C@@H](C)CC)C(=O)N(C)CC(=O)N(C)[C@H]2C/C=C\CCN(C2=O)[C@@H](Cc2ccc(C)cc2)C(=O)N(C)CC(=O)N[C@@H](CCc2cc(F)c(C(F)(F)F)c(F)c2)C(=O)N2C[C@H](CCC)C[C@H]2C(=O)NC2(CCC2)C(=O)N(C)[C@@H](C2CCCC2)C(=O)N(C)[C@H](C(=O)N(C)C)CC(=O)N1C` [PP2232] was run?
A: The Kd was 0.22 nM.

Q: What about the IC50 [2] of the same molecule?
A: The IC50 was 18.7 nM.

Q: And the “HRAS /KRAS” value (HRAS wild-type protein; [7])?
A: Its value is “A (a compound having 10 or more and less than 20 is denoted as A)”.

Q: What about the “NRAS /KRAS” value [3, 8] of the same molecule?
A: The value was “A (a compound having 10 or more and less than 20 is denoted as A)”.

Q: What does the source list for `CCO[C@@H]1C[C@H]2C(=O)NC3(CCC3)C(=O)N(C)[C@@H](C3CCCC3)C(=O)N(C)[C@H](C(=O)N(C)C)CC(=O)N(C)[C@@H](CC)C(=O)N[C@@H]([C@@H](C)CC)C(=O)N(C)CC(=O)N(C)[C@H]3CC(C)=C(C)CN(C3=O)[C@@H](Cc3ccc(C(F)(F)F)cc3)C(=O)N(C)CC(=O)N[C@@H](CCc3cc(F)c(C(F)(F)F)c(F)c3)C(=O)N2C1` [PP1048]?
A: Kd ([1]; Single Cycle Kinetics): 0.49 nM; IC50 [2]: 134 nM; HRAS /KRAS (HRAS wild-type protein; [9]): C (A compound having a KD ratio of 0.1 or more and less than 3 is denoted as C); NRAS /KRAS [3, 10]: C (A compound having a KD ratio of 0.1 or more and less than 3 is denoted as C)

Q: What does the source list for `CCO[C@@H]1C[C@H]2C(=O)NC3(CCC3)C(=O)N(C)[C@@H](C3CCCC3)C(=O)N(CC)[C@H](C(=O)N3CCOCC3)CC(=O)N(C)[C@@H](CC(C)C)C(=O)N[C@@H]([C@@H](C)CC)C(=O)N(C)CC(=O)N(C)[C@H]3CCCCCN(C3=O)[C@@H](Cc3ccc(C(F)(F)F)cc3)C(=O)N(C)CC(=O)N[C@@H](CCc3cc(F)c(C(F)(F)F)c(F)c3)C(=O)N2C1` [PP0638]?
A: Kd [1, 4]: 3.4 nM; IC50 [2]: 341 nM; HRAS /KRAS (HRAS wild-type protein; [7]): B (a compound having 3 or more and less than 10 is denoted as B); NRAS /KRAS [3, 8]: B (a compound having 3 or more and less than 10 is denoted as B)

Q: With `CC[C@H](C)[C@@H]1NC(=O)[C@H](CC(C)C)N(C)C(=O)C[C@@H](C(=O)N2CCOCC2)N(C)C(=O)[C@H](C2CCCC2)N(C)C(=O)C2(CCC2)NC(=O)[C@@H]2C[C@@H](OCC3CC3)CN2C(=O)[C@H](CCc2cc(F)c(C(F)(F)F)c(F)c2)NC(=O)CN(C)C(=O)[C@H](Cc2ccc(C(F)(F)F)cc2)N2CCCC[C@@H](C2=O)N(C)C(=O)CN(C)C1=O` [PP1014] as the molecule, how does the Kd ([1]; Single Cycle Kinetics) read?
A: Its Kd is 1.1 nM.

Q: And the IC50 [2]?
A: The IC50 was 114 nM.

Q: And the “HRAS /KRAS” value (HRAS wild-type protein; [9])?
A: The value was “C (A compound having a KD ratio of 0.1 or more and less than 3 is denoted as C)”.

Q: And the “NRAS /KRAS” value [3, 10]?
A: Its value is “C (A compound having a KD ratio of 0.1 or more and less than 3 is denoted as C)”.

Q: For `CCO[C@@H]1C[C@H]2C(=O)NC3(CC(C)(C)C3)C(=O)N(C)[C@@H](C3CCCC3)C(=O)N(C)[C@H](C(=O)N(C)CC)CC(=O)N(C)[C@@H](CC(C)C)C(=O)N[C@@H]([C@@H](C)CC)C(=O)N(C)CC(=O)N(C)[C@H]3C/C=C\CCN(C3=O)[C@@H](Cc3ccc(C(F)F)cc3)C(=O)N(C)CC(=O)N[C@@H](CCc3cc(F)c4c(c3)OCC4)C(=O)N2C1` [PP3150], which Kd ([1]; 1:1 binding model) is on record?
A: The Kd was 2.9 nM.

Q: What about the IC50 [2] of the same molecule?
A: Its IC50 is 191 nM.

Q: And the “HRAS /KRAS” value (HRAS wild-type protein; [9])?
A: Its value is “A (a compound having 10 or more and less than 20 is denoted as A)”.

Q: What about the “NRAS /KRAS” value [3, 10] of the same molecule?
A: The value was “A (a compound having 10 or more and less than 20 is denoted as A)”.

Q: What does the source list for `CC[C@@H]1C[C@H]2C(=O)NC3(CCCC3)C(=O)N(C)[C@@H](C3CCCC3)C(=O)N(C)[C@H](C(=O)N(C)C)CC(=O)N(C)[C@@H](CC(C)C)C(=O)N[C@@H]([C@@H](C)CC)C(=O)N(C)CC(=O)N(C)[C@H]3C/C=C\CCN(C3=O)[C@@H](Cc3ccc(C)cc3)C(=O)N(C)CC(=O)N[C@@H](CCc3cc(F)c(C(F)(F)F)c(F)c3)C(=O)N2C1` [PP2191]?
A: Kd [1, 4]: 0.23 nM; IC50 [2]: 91.6 nM; HRAS /KRAS (HRAS wild-type protein; [7]): B (a compound having 3 or more and less than 10 is denoted as B); NRAS /KRAS [3, 8]: A (a compound having 10 or more and less than 20 is denoted as A)

Q: Which Kd [1, 4] does the source give for `CC[C@H](C)[C@@H]1NC(=O)[C@H](CC(C)C)N(C)C(=O)C[C@@H](C(=O)N2CCOCC2)N(C)C(=O)[C@H](C2CCCC2)N(C)C(=O)C2(CCCC2)NC(=O)[C@@H]2CCCN2C(=O)[C@H](CCc2ccc(C(F)(F)F)c(Cl)c2)NC(=O)CN(C)C(=O)[C@H](Cc2ccc(OC)cc2)N2C/C=C\CC[C@@H](C2=O)N(C)C(=O)CN(C)C1=O` [PP0609] here?
A: Its Kd is 3.9 nM.

Q: What about the IC50 [2] of the same molecule?
A: The IC50 was 468 nM.

Q: And the “HRAS /KRAS” value (HRAS wild-type protein; [7])?
A: The value was “B (a compound having 3 or more and less than 10 is denoted as B)”.

Q: And the “NRAS /KRAS” value [3, 8]?
A: Its value is “B (a compound having 3 or more and less than 10 is denoted as B)”.
